The values that follow come from patent US7807704B2, “Bicyclic, nitrogen-containing compounds modulating CXCR4 and/or CCXCKR2” (Chemocentryx, Inc., priority 2006, dated 2010).

Where only a bound is given, the exact number is not on record here.

This assay concerns the target T1, CXCR4 (Homo sapiens, UniProt P61073).
T1 construct: all endogenously expressing CXCR4; endogenous in cells; host or cells: CEM-Nkr, CCRF-CEM, Jurkat, Molt-4; IL-2 stimulated human lymphocytes
The assay is described as follows: chemotaxis assay or 125I SDF-1α binding assay for CXCR4. The conditions noted are these: first or only activity listed, read-out: CXCR4 activity (IC50 class). On the procedure: CEM-Nkr, CCRF-CEM (ATCC #CCL-119), Jurkat (ATCC #TIB-152), Molt-4 (ATCC# CRL-1582), cell lines, all endogenously expressing CXCR4, were used in compound screening and subsequent assays. These cell lines were cultured as a suspension in RPMI-1640 medium supplemented with 2 mM L-glutamine, 1.5 g/L sodium bicarbonate, 4.5 g/L glucose, 10 mM HEPES, 1 mM sodium pyruvate, and 10% FBS. Cells were grown under 5% CO2/95% air, 100% humidity at 37° C. and subcultured twice weekly at 1:6 (cells were cultured at a density range of 1×10^5 to 2×10^6 cells/mL) and harvested at 1×10^6 cells/mL. • b) Isolated Human IL-2 Stimulated Lymphocytes
Cells were centrifuged and resuspended in assay buffer (20 mM HEPES pH 7.1, 140 mM NaCl, 1 mM CaCl2, 5 mM MgCl2, and with 0.2% bovine serum albumin) to a concentration of 4×10^6 cells/mL for cell lines. Binding assays were set up as follows. […] Then 0.1 mL of ^125I labeled SDF-1α (obtained from Perkin Elmer Life Sciences, Boston, Mass.) diluted in assay buffer to a final concentration of ˜50 pM, yielding ˜30,000 cpm per well, was added, the plates sealed and incubated for approximately 3 hours at 4° C. on a shaker platform. Reactions were aspirated onto GF/B glass filters pre-soaked in 0.3% polyethyleneimine (PEI) solution, on a vacuum cell harvester (Packard Instruments; Meriden, Conn.). Scintillation fluid (40 μl; Microscint 20, Packard Instruments) was added to each well, the plates were sealed and radioactivity measured in a Topcount scintillation counter (Packard Instruments). Control wells containing either diluent only (for total counts) or excess SDF1 a (1 μg/mL, for non-specific binding) were used to calculate the percent of total inhibition for compound. The computer program Prism from GraphPad, Inc. (San Diego, Calif.) was used to calculate IC50 values. IC50 values are those concentrations required to reduce the binding of radiolabeled SDF-1α to the receptor by 50%. (For further descriptions of ligand binding and other functional assays, see Dairaghi, et al., J. Biol. Chem. 274:21569-21574 (1999), Penfold, et al., Proc. Natl. Acad. Sci. USA. 96:9839-9844 (1999), and Dairaghi, et al., J. Biol. Chem. 272:28206-28209 (1997)).
Chemotaxis assays were performed using 5 μm pore polycarbonate, polyvinylpyrrolidone-coated filters in 96-well chemotaxis chambers (Neuroprobe; Gaithersburg, Md.) using chemotaxis buffer (Hank's balanced salt solution (HBSS) and 1% FBS). CXCR4 ligand (i.e., SDF1a, R&D Systems; Minneapolis, Minn.) are use to evaluate compound mediated inhibition of CXCR4 mediated migration. Other chemokines (i.e., TECK; R&D Systems; Minneapolis, Minn.) are used as specificity controls. The lower chamber was loaded with 29 μl of chemokine (i.e., 0.1 nM SDF1a); the top chamber contained 50,000 Jurkat cells or IL-2 lymphocytes in 20 μl. The chambers were incubated 2 hours at 37° C., and the number of cells in the lower chamber quantified either by direct cell counts in five high powered fields per well or by the CyQuant assay (Molecular Probes), a fluorescent dye method that measures nucleic acid content and microscopic observation.
To evaluate small organic molecules that prevent the CXCR4 from binding ligand, an assay was employed that detected radioactive ligand (i.e, SDF-1) binding to cells expressing CXCR4 on the cell surface (for example, CEM-Nkr cells). For compounds that inhibited binding, whether competitive or not, fewer radioactive counts are observed when compared to uninhibited controls.
Equal numbers of cells were added to each well in the plate. The cells were then incubated with radiolabeled […]. Unbound ligand was removed by washing the cells, and bound ligand was determined by quantifying radioactive counts. Cells that were incubated without any organic compound gave total counts; non-specific binding was determined by incubating the cells with unlabeled ligand and labeled ligand. Percent inhibition was determined by the equation: […]

T1 sequence (P61073 whole entry): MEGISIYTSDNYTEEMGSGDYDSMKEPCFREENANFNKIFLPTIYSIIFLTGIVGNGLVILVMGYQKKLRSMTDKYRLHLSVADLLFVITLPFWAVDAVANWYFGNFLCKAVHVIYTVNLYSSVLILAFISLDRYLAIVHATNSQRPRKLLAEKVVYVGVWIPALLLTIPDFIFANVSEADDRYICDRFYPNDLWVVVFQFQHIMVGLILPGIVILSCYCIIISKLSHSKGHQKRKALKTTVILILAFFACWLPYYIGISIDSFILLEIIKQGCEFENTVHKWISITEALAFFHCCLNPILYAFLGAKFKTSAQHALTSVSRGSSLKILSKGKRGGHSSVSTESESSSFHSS

Broadly, the IC50 is the concentration that gives 50% inhibition. As to `Cc1ccc(-c2ccc3ccn(CC(=O)NCCN(C)C4CCCCC4)c3c2)cc1F` [No 48], the IC50 was less than 1000 nM.

As for `Cc1ccc(-c2ccc3ccn(CC(=O)NCCN4CCCCC4)c3c2)cc1` [No 11], the 50% inhibitory concentration (IC50) is less than 1000 nM. On to `CN(CCNC(=O)Cn1cnc2c(F)c(F)ccc21)C1CCCCC1` [No 18], for which the concentration for half-maximal inhibition (IC50) is less than 1000 nM. To `O=C(Cn1ccc2cccc(-c3ccc(F)cc3)c21)NCCN1CCCC2CCCCC21` (centres unmarked) [No 4] belongs less than 1000 nM; to `Cc1ccc(-c2ccc3ccn(CC(=O)NCCN4CCC(C)CC4)c3c2)cc1` [No 56], less than 1000 nM; to `Cc1ccc(-c2ccc3oc(=O)n(CC(=O)NCCN(C)C4CCCCC4)c3c2)cc1` [No 12], less than 1000 nM. In the case of `Cc1ccc(-c2ccc3ccn(CC(=O)NCCN4CCCCCC4)c3c2)cc1` [No 54], the IC50 is less than 1000 nM. To `Cc1ccc(-c2ccc3ccn(CC(=O)NC(C)(C)CN4CCCC4)c3c2)cc1` [No 15] belongs 1000 to 10000 nM; to `CN(CCNC(=O)Cn1cc2ccccc2n1)C1CCCCC1` [No 10], 1000 to 10000 nM; to `Cc1ccc(-c2ccc3ccn(CC(=O)NCCNC4CCOC4)c3c2)cc1` (centres unmarked) [No 13], 1000 to 10000 nM. Regarding `CN(CCNC(=O)Cn1ccc2cccc([N+](=O)[O-])c21)C1CCCCC1` [No 8], the IC50 was less than 1000 nM.

As to `CN(CCNC(=O)Cn1ncc2c1CCCC2)C1CCCCC1` [No 6], the IC50 was greater than 10000 nM. As for `CN(CCNC(=O)Cn1cnc2ncccc21)C1CCCCC1` [No 7], the 50% inhibitory concentration (IC50) was 1000 to 10000 nM. Regarding `Cc1ccc(-c2ccc3cc(C(=O)O)n(CC(=O)NCCN(C)C4CCCCC4)c3c2)cc1` [No 14], the concentration for half-maximal inhibition (IC50) was less than 1000 nM.

With `CN(CCCNC(=O)Cn1ccc2cccc(-c3ccc(F)cc3)c21)C1CCCCC1` [No 1], the IC50 is less than 1000 nM. For the compound `CN(CCNC(=O)Cn1nc(Cl)c2ccccc21)C1CCCCC1` [No 21], the IC50 was in the range of 1000 to 10000 nM.

As to `Cc1ccc(-c2ccc3ccn(CC(=O)NCCN(C)C4CCCC4)c3c2)cc1` [No 51], the IC50 is less than 1000 nM. To `CCN(CCNC(=O)Cn1ccc2ccc(-c3ccc(C)cc3)cc21)C1CCCCC1` [No 55] belongs less than 1000 nM; to `CCc1ccc(-c2ccc3ccn(CC(=O)NCCN(C)C4CCCCC4)c3c2)cc1` [No 38], less than 1000 nM; to `Cc1ccc(-c2cccc3c2ccn3CC(=O)NCCN(C)C2CCCCC2)cc1` [No 43], less than 1000 nM. To `COc1cc(-c2ccc(C)cc2)cc2c1ccn2CC(=O)NCCN(C)C1CCCCC1` [No 17] belongs less than 1000 nM; to `Cc1ccc(-c2ccc3ccn(CC(=O)NCCN4CC(C)CC(C)C4)c3c2)cc1` (centres unmarked) [No 64], less than 1000 nM.

Take `Cc1ccc(-c2ccc3ccn(CC(=O)NCCN4CCCCC4C)c3c2)cc1` (centres unmarked) [No 53]: the IC50 is less than 1000 nM.

With `COC(=O)c1cc2ccc(-c3ccc(C)cc3)cc2n1CC(=O)NCCN(C)C1CCCCC1` [No 58], the half-inhibitory concentration (IC50) is less than 1000 nM.

As to `Cc1ccccc1-c1ccc2ccn(CC(=O)NCCN(C)C3CCCCC3)c2c1` [No 30], the 50% inhibitory concentration (IC50) fell in the range of 1000 to 10000 nM.

Regarding `CN(CCNC(=O)Cn1ccc2ccc(-c3ccc(C(N)=O)cc3)cc21)C1CCCCC1` [No 50], the IC50 is less than 1000 nM. To `Cc1ccc(-c2ccc3c(ccn3CC(=O)NCCN(C)C3CCCCC3)c2)cc1` [No 41] belongs less than 1000 nM; to `Cc1ccc(-c2ccc3ccn(CC(=O)NCCN4CCCC(C)(C)C4)c3c2)cc1` [No 63], less than 1000 nM. To `Cc1ccc(-c2ccc3cnn(CC(=O)NCCN(C)C4CCCCC4)c3c2)cc1` [No 49] belongs less than 1000 nM; to `Cc1ccc(-c2ccc3ccn(CC(=O)NCC(C)N4CCCC4)c3c2)cc1` (centres unmarked) [No 61], less than 1000 nM; to `CN(CCNC(=O)Cc1c[nH]c2ccccc12)C1CCCCC1` [No 20], 1000 to 10000 nM. To `C=Cc1ccc(-c2ccc3ccn(CC(=O)NCCN(C)C4CCCCC4)c3c2)cc1` [No 45] belongs less than 1000 nM.

As to `Cc1ccc(-c2ccc3ccn(CC(=O)NCCN4CCC[C@@H]5CCCC[C@H]54)c3c2)cc1` [No 44], the IC50 is less than 1000 nM.

For the compound `CN(CCNC(=O)Cn1ccc2ccc(-c3ccc(C#N)cc3)cc21)C1CCCCC1` [No 57], the IC50 is less than 1000 nM. As to `Cc1cccc(-c2ccc3ccn(CC(=O)NCCN(C)C4CCCCC4)c3c2)c1` [No 39], the half-maximal inhibitory concentration (IC50) was less than 1000 nM. To `CN(CCNC(=O)Cn1ccc2ccc(-c3ccc(C(F)(F)F)cc3)cc21)C1CCCCC1` [No 25] belongs less than 1000 nM; to `CC(C)c1ccc(-c2ccc3ccn(CC(=O)NCCN4CCCC5CCCCC54)c3c2)cc1` (centres unmarked) [No 3], less than 1000 nM; to `CN(CCNC(=O)Cn1ccc2cc(-c3ccc(F)cc3)ccc21)C1CCCCC1` [No 42], less than 1000 nM. To `CN(CCNC(=O)Cn1ccc2ccc(-c3ccccc3)cc21)C1CCCCC1` [No 22] belongs less than 1000 nM; to `CN(CCNC(=O)Cn1ccc2ccc(-c3cnc4ccccc4c3)cc21)C1CCCCC1` [No 36], less than 1000 nM; to `Cc1ccc(-c2ccc3ncn(CC(=O)NCCN(C)C4CCCCC4)c3c2)cc1` [No 60], less than 1000 nM. The result for `Cc1ccc(-c2ccc3ccn(CC(=O)NCCN(C)C4CCCCC4)c3c2)cc1C` [No 46] reads less than 1000 nM; that for `Cc1ccc2c(c1)ncn2CC(=O)NCCN(C)C1CCCCC1` [No 9], less than 1000 nM. On to `Cc1ccc(-c2ccc3c(C4=CCCC=C4)nn(CC(=O)NCCN(C)C4CCCCC4)c3c2)cc1` [No 16], for which the 50% inhibitory concentration (IC50) was 1000 to 10000 nM. The result for `CN(CCNC(=O)Cn1ccc2ccc(-c3cc4ccccc4o3)cc21)C1CCCCC1` [No 37] reads less than 1000 nM; that for `CN(CCNC(=O)Cn1ncc2ccccc21)C1CCCCC1` [No 2], greater than 10000 nM. The result for `CN(CCNC(=O)Cn1ccc2ccc(-c3ccc(Cl)cc3)cc21)C1CCCCC1` [No 29] reads less than 1000 nM; that for `CN(CCNC(=O)Cn1cnc2c1CCOC2)C1CCCCC1` [No 19], greater than 10000 nM. The result for `Cc1ccc(-c2ccc3ccn(CC(=O)NC(C)CN4CCCC4)c3c2)cc1` (centres unmarked) [No 59] reads less than 1000 nM. With `Cc1ccc(-c2ccc3ccn(CC(=O)NCCN(C)C4CCCCC4)c3c2)c(F)c1` [No 47], the 50% inhibitory concentration (IC50) is less than 1000 nM. The result for `Cc1ccc(-c2ccc3ccn(CC(=O)NCCN4CCCC4)c3c2)cc1` [No 52] reads less than 1000 nM; that for `CN(C)c1ccc(-c2ccc3ccn(CC(=O)NCCN(C)C4CCCCC4)c3c2)cc1` [No 62], less than 1000 nM. To `CN(CCNC(=O)Cn1ccc2ccc(-c3ccncc3)cc21)C1CCCCC1` [No 40] belongs less than 1000 nM.
